Patent US5338548A, “Method for increasing the storage stability of physostigmine” (priority 1993, dated 1994)
Several values for one entry are separate records, joined by “and”; a condition that tells them apart may be missing. Equal entries are not always repeated. Entries after “also recorded” stand apart in the source; their conditions may differ.

Assays:
skin of rabbits = experiment: In Vivo Test of Physostigmine Free Base Patches (rabbit skin flux, 23 hours)
Method: Pellethane™ 2363-80AE (24.4 g) was added to a solution of 101.3 g of THF containing 2.903 g of physostigmine free base and 2.951 g of isopropyl myristate and stirred until a clear solution was formed. After evaporation of the THF solvent, the liquid cast film of 2000 μm produced a dry matrix film 180-230 μm thick. A solution of Avery adhesive 460, containing 10 wt % isopropyl myristate was cast on the drug/polymer matrix film to produce an adhesive layer approximately 801 μm thick. The film was finally overlaid with a release liner film 1022 available from 3M Company and patches with an area of 7.92 cm^2 were cut from the laminated structure. These patches were weighed, heat sealed into polyethylene-foil pouches and stored until use.
The patches were then placed on the skin of rabbits from which the hair had been carefully clipped, after 23 hours, the patches were removed and the in vivo skin fluxes determined and summarized in Table II.

[1] = Stability of Physostigmine Free Base in Polymer Matrix (patch storage, HPLC recovery); format: physicochemical; details: for Weight of Physostigmine free base Recovered: polyurethane patch, n = 3
Method: Increased stability of physostigmine free base in polymer matrices over solutions is shown in the following experiments. Patches containing physostigmine free base in a polymer matrix were prepared by dissolving 18 g of a polyether based polyurethane produced by Dow under the name Pellethane™ grade 2363-80AE, 2.0 g physostigmine free base and 2.0 g isopropyl myristate in 80 g THF. The solution was allowed to stand until clear. A second identical lot of polymer/drug solution was prepared containing 0.02 g of acetyl cystine. Clear solutions were cast onto the reverse side of a polyester-based release liner available from 3M Company of Minneapolis under the trade name Scotch™ 1002. After evaporation of the THF solvent, the liquid cast film of 2000 μm produced a dry matrix film 200-230 μm thick. Patches with an area of 7.9 cm^2 were cut from these laminated structures, packaged in polyethylene foil pouches and stored at room temperature and at 45° C.
Three patches from each lot were tested for physostigmine free base content immediately after manufacture and after 7 and 25 days of storage at room temperature and at 45° C. Once the backing was removed from the patch, the drug-containing film was weighed and then dissolved in 25 g of THF, followed by dilution with 25 g on methanol. Precipitated Pellethane™ was filtered from the solution before injection into the HPLC. Average amounts of physostigmine free base recovered from the patches, with and without acetyl cysteine, are given in Table I. Theoretical drug loadings were 17.2 and 16.2 mg for the stabilized and unstabilized patches, respectively. Scatter in the weight data can be attributed to variation in film weights and analytical errors amounting to as much as ±10%.

[2] = Stability of Physostigmine Free Base in Aqueous Solution (and in ethanol, isopropyl myristate), HPLC; format: physicochemical
Method: Relative stability of physostigmine free base in neutral or alkaline solution was determined as follows. Methanolic solution of physostigmine free base was acidified with a few drops of hydrochloric acid to lower the pH to about 3-6. […] Analysis was performed using HPLC Nova Pak 4-C18 column and a mobile phase consisting of:
0.63 g 85% Phosphorous Acid
0.96 g Sodium pentasulphonate
In the same manner, stability of physostigmine free base in neutral or slightly acidified water was determined and is shown in FIG. 2. […] In ethanol solution, 5% of the physostigmine free base was lost after 7 days and 10% after 27 days. At this rate of degradation, a patch would have lost 72% of its active ingredient in one year and 92% in two years.

[3] = tested on: skeletal muscle contraction; details: background, myasthenia gravis; cited from earlier work
[4] = systemic use; cited from earlier work
long-term memory = details: Davis et al., Science 201, 272 (1978); cited from earlier work
tardive dyskinesia = details: American Journal of Psychiatry, 134(7), 769-774; cited from earlier work
[5] = tablets, oral dosage; cited from earlier work
[6] = individual patch (patch 1-12), 23 hours on rabbit skin

CNC(=O)Oc1ccc2c(c1)[C@]1(C)CCN(C)[C@@H]1N2C [Physostigmine free base]
Drug Delivered ΔMass (skin of rabbits; Average of patches 1-12): 14.0 mg
Drug Delivered ΔMass (%) (skin of rabbits; Average of patches 1-12): 69%
Drug Remaining in Patch (skin of rabbits; Average of patches 1-12): 6.3 mg
ΔMass/time (skin of rabbits; Average of patches 1-12): 0.61 mg/h
Average Total Flux (skin of rabbits; Average of patches 1-12, patch area 7.9 cm^2): 77 μg/cm^2 · hr
Drug Delivered ΔMass (skin of rabbits; [6]): 15.0 mg and 14.0 mg and 15.7 mg and 12.0 mg and 16.0 mg and 12.8 mg and 14.3 mg and 13.7 mg and 15.2 mg and 12.7 mg and 11.8 mg
Drug Delivered ΔMass (%) (skin of rabbits; [6]): 67% and 69% and 70% and 71% and 68%
ΔMass/time (skin of rabbits; [6]): 0.65 mg/h and 0.61 mg/h and 0.68 mg/h and 0.52 mg/h and 0.70 mg/h and 0.56 mg/h and 0.62 mg/h and 0.60 mg/h and 0.66 mg/h and 0.55 mg/h and 0.51 mg/h
Drug Remaining in Patch (skin of rabbits; individual patch (patch 1-12), 23 hours on rabbit skin, measured by HPLC): 7.4 mg and 6.8 mg and 7.1 mg and 5.2 mg and 6.7 mg and 6.2 mg and 6.5 mg and 5.7 mg and 4.9 mg
Average Total Flux (skin of rabbits; individual patch (patch 1-12), patch area 7.9 cm^2, 23 hours on rabbit skin): 82 μg/cm^2 · hr and 77 μg/cm^2 · hr and 86 μg/cm^2 · hr and 66 μg/cm^2 · hr and 88 μg/cm^2 · hr and 71 μg/cm^2 · hr and 78 μg/cm^2 · hr and 75 μg/cm^2 · hr and 83 μg/cm^2 · hr and 70 μg/cm^2 · hr and 64 μg/cm^2 · hr
drug delivered (skin of rabbits; over the 23 hour period): approximately 70%
Average Physostigmine free base flux (skin of rabbits; text after Table II): 160 μg/cm^2 ·h
discoloration of patches ([1]; 25 days at 45° C.): slightly discolored
Weight of Physostigmine free base Recovered ([1]; No Preservative, 45° C., 0 days): 15.0 mg
Weight of Physostigmine free base Recovered ([1]; No Preservative, 45° C., 7 days): 16.8 mg
Weight of Physostigmine free base Recovered ([1]; No Preservative, 45° C., 25 days): 18.5 mg
Weight of Physostigmine free base Recovered ([1]; No Preservative, Room Temperature, 0 days): 15.0 mg
Weight of Physostigmine free base Recovered ([1]; No Preservative, Room Temperature, 7 days): 16.5 mg
Weight of Physostigmine free base Recovered ([1]; No Preservative, Room Temperature, 25 days): 16.8 mg
Weight of Physostigmine free base Recovered ([1]; With Preservative, 45° C., 0 days): 15.1 mg
Weight of Physostigmine free base Recovered ([1]; With Preservative, 45° C., 7 days): 16.8 mg
Weight of Physostigmine free base Recovered ([1]; With Preservative, 45° C., 25 days): 16.8 mg
Weight of Physostigmine free base Recovered ([1]; With Preservative, Room Temperature, 0 days): 15.1 mg
Weight of Physostigmine free base Recovered ([1]; With Preservative, Room Temperature, 7 days): 17.3 mg
Weight of Physostigmine free base Recovered ([1]; With Preservative, Room Temperature, 25 days): 16.8 mg
additional peaks in HPLC analysis ([1]; patches stored 25 days at 45° C.): no additional peaks were observed
physostigmine free base loss during storage ([1]; polyurethane patches, room temperature or 45° C., up to 25 days): no measurable physostigmine free base loss
degraded at 168 h ([2]; ethanol solution, after 7 days, read-out: physostigmine free base lost in ethanol solution): 5%
degraded at 648 h ([2]; ethanol solution, after 27 days, read-out: physostigmine free base lost in ethanol solution): 10%
appearance of degradation (pink solution, rubreserine) ([2]; methanolic solution acidified with HCl to pH about 3-6, after one or two hours): became pink due to accumulation of the degradation product rubreserine; also recorded: appearance of degradation products of the pink solution
loss of initial drug in neutral solution ([2]; neutral water, within 30 days, same storage conditions, FIG. 2): degrades rapidly with more than half of the initial drug gone
stability in slightly acidified water ([2]; room temperature, pH 3, FIG. 2): more stable, and slightly pink
rate of degradation in ethanol and isopropyl myristate ([2]; solvents ethanol and isopropyl myristate, compared with unbuffered and acidified water): slower than with unbuffered water but faster than with acidified water

CNC(=O)Oc1ccc2c(c1)[C@]1(C)CCN(C)[C@@H]1N2C [Physostigmine]
strength of muscular contraction [3]: increased strength of muscular contraction
therapeutic window [4]: narrow therapeutic window
retrieval of information from long-term memory (long-term memory): improved
storage of information into long-term memory (long-term memory): significantly enhanced storage of information into long-term memory
therapeutic effects on tardive dyskinesia (tardive dyskinesia): positive therapeutic effects on tardive dyskinesia
drug blood levels for multiple oral doses [5]: typical variations in blood concentration ranging from a maxima above the required level (and possibly in the toxic range) to a minima which may be below the effective dose
